≈ marks a conversion by molar mass, not a printed value.

The results in this text go back to patent publication US9511073B2, “Aromatic amides and uses thereof” (TAXIS Pharmaceuticals, Inc., priority 2011, dated 2016).

The assay relates to Staphylococcus aureus (Isolate ID ATCC 29213). The experiment in a line: Bacterial assay: MIC by broth microdilution or agar dilution (CLSI), S. aureus ATCC 29213. The settings on record: Staphylococcus aureus, ATCC29213, read-out: S. aureus MIC (μg/mL) Activity Range, S. aureus (ATCC29213). The format is cell-based. The method, boiled down: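 Activity is binned (A ≤0.25 μg/mL; B >0.25–1.0; C >1.0–16; D >16 μg/mL) from MICs determined per CLSI by broth microdilution or agar dilution, on S. aureus ATCC 29213 plus an FtsZ-G196A mutant strain.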
Regarding `NC(=O)c1c(F)ccc(OC(COC(=O)NCCn2ccccc2=O)c2nc(-c3ccc(C(F)(F)F)cc3)c(Br)o2)c1F` (stereo not shown) [Compound 217, 2-(5-bromo-4-(4-(trifluoromethyl)phenyl)oxazol-2-yl)-2-(3-carbamoyl-2,4-difluorophenoxy)ethyl (2-(2-oxopyridin-1(2H)-yl)ethyl)carbamate], the MIC lay within 0.25 to 1 µg/mL (≈ 0.372 to 1.49 µM).

Turning to `COc1ncc(-c2nc(C(C)Oc3ccc(F)c(C(N)=O)c3F)sc2Cl)s1` (stereo not shown) [Compound 35], the MIC is under 0.25 µg/mL.

As to `Cn1cncc1CNC(=O)OCC(Oc1ccc(F)c(C(N)=O)c1F)c1nc(-c2ccc(C(F)(F)F)cc2)c(Br)o1` (stereo not shown) [Compound 195, 2-(5-bromo-4-(4-(trifluoromethyl)phenyl)oxazol-2-yl)-2-(3-carbamoyl-2,4-difluorophenoxy)ethyl ((1-methyl-1H-imidazol-5-yl)methyl)carbamate], the MIC lay in the range of 1 to 16 µg/mL (≈ 1.55 to 24.8 µM).

Regarding `CCCc1oc(C(C)Oc2ccc(F)c(C(N)=O)c2F)nc1-c1ccccc1` (stereo not shown) [Compound 8], the MIC was 1 to 16 µg/mL (≈ 2.59 to 41.4 µM).

`Cc1cc(CNC(=O)OCC(Oc2ccc(F)c(C(N)=O)c2F)c2nc(-c3ccc(C(F)(F)F)cc3)c(Br)o2)ccn1` (stereo not shown) [Compound 200, 2-(5-bromo-4-(4-(trifluoromethyl)phenyl)oxazol-2-yl)-2-(3-carbamoyl-2,4-difluorophenoxy)ethyl ((2-methylpyridin-4-yl)methyl)carbamate]: the MIC lay within 0.25 to 1 µg/mL (≈ 0.381 to 1.53 µM).

Consider `Cc1cccc(CNC(=O)OCC(Oc2ccc(F)c(C(N)=O)c2F)c2nc(-c3ccc(C(F)(F)F)cc3)c(Br)o2)n1` (stereo not shown) [Compound 199, 2-(5-bromo-4-(4-(trifluoromethyl)phenyl)oxazol-2-yl)-2-(3-carbamoyl-2,4-difluorophenoxy)ethyl ((6-methylpyridin-2-yl)methyl)carbamate], for which the MIC is 0.25 to 1 µg/mL (≈ 0.381 to 1.53 µM).

For `NC(=O)c1c(F)ccc(O[C@H](CO)c2nc(-c3ccc(Cl)s3)c(Br)o2)c1F` [Compound 250B, (R)-3-(1-(5-bromo-4-(5-chlorothiophen-2-yl)oxazol-2-yl)-2-hydroxyethoxy)-2,6-difluorobenzamide], the MIC is under 0.25 µg/mL.

As to `NC(=O)c1c(F)ccc(OC(COC(=O)CCCN2C(=O)c3ccccc3C2=O)c2nc(-c3ccc(C(F)(F)F)cc3)c(Br)o2)c1F` (stereo not shown) [Compound 69, 2-(5-bromo-4-(4-(trifluoromethyl)phenyl)oxazol-2-yl)-2-(3-carbamoyl-2,4-difluorophenoxy)ethyl 4-(1,3-dioxoisoindolin-2-yl)butanoate], the MIC was in the range of 0.25 to 1 µg/mL (≈ 0.346 to 1.38 µM).

Turning to `COc1ccc(CNC(=O)OCC(Oc2ccc(F)c(C(N)=O)c2F)c2nc(-c3ccc(C(F)(F)F)cc3)c(Br)o2)cn1` (stereo not shown) [Compound 208, 2-(5-bromo-4-(4-(trifluoromethyl)phenyl)oxazol-2-yl)-2-(3-carbamoyl-2,4-difluorophenoxy)ethyl ((6-methoxypyridin-3-yl)methyl)carbamate], the MIC is 0.25 to 1 µg/mL (≈ 0.372 to 1.49 µM).

Consider `CC(Oc1ccc(F)c(C(N)=O)c1F)c1nc(-c2ccc(C(F)(F)F)cc2)c(Cl)o1` (stereo not shown) [Compound 32], for which the MIC is 0.25 to 1 µg/mL (≈ 0.56 to 2.24 µM).

`NC(=O)c1c(F)ccc(OC(CNC(=O)c2ccccn2)c2nc(-c3ccc(C(F)(F)F)cc3)co2)c1F` (stereo not shown) [Compound 294, N-(2-(3-carbamoyl-2,4-difluorophenoxy)-2-(4-(4-(trifluoromethyl)phenyl)oxazol-2-yl)ethyl)picolinamide]: the MIC was over 16 µg/mL.

Take `C=CCc1oc(C(CCC)Oc2ccc(F)c(C(N)=O)c2F)nc1-c1ccc(Cl)cc1` (stereo not shown) [Compound 28]: the MIC lay within 1 to 16 µg/mL (≈ 2.24 to 35.8 µM).

On to `CNCCNC(=O)OCC(Oc1ccc(F)c(C(N)=O)c1F)c1nc(-c2ccc(C(F)(F)F)cc2)c(Br)o1` (stereo not shown) [Compound 154, 2-(5-bromo-4-(4-(trifluoromethyl)phenyl)oxazol-2-yl)-2-(3-carbamoyl-2,4-difluorophenoxy)ethyl (2-(methylamino)ethyl)carbamate], for which the MIC lay in the range of 1 to 16 µg/mL (≈ 1.65 to 26.3 µM).

For the compound `CC(=O)OCC(Oc1ccc(F)c(C(N)=O)c1F)c1nc(-c2ccc(C#N)cc2)c(Br)o1` (stereo not shown) [Compound 76, 2-(5-bromo-4-(4-cyanophenyl)oxazol-2-yl)-2-(3-carbamoyl-2,4-difluorophenoxy)ethyl acetate], the MIC lay in the range of 1 to 16 µg/mL.

Regarding `NC(=O)c1c(F)ccc(O[C@H](CO)c2nc(-c3ccc4occc4c3)c(Br)o2)c1F` [Compound 254B, (R)-3-(1-(4-(benzofuran-5-yl)-5-bromooxazol-2-yl)-2-hydroxyethoxy)-2,6-difluorobenzamide], the MIC fell in the range of 1 to 16 µg/mL (≈ 2.09 to 33.4 µM).

Regarding `Cc1cc(CNC(=O)OCC(Oc2ccc(F)c(C(N)=O)c2F)c2nc(-c3ccc(C(F)(F)F)cc3)c(Br)o2)n(C)n1` (stereo not shown) [Compound 212, 2-(5-bromo-4-(4-(trifluoromethyl)phenyl)oxazol-2-yl)-2-(3-carbamoyl-2,4-difluorophenoxy)ethyl ((1,3-dimethyl-1H-pyrazol-5-yl)methyl)carbamate], the MIC is 0.25 to 1 µg/mL (≈ 0.38 to 1.52 µM).

Consider `COc1ccc(-c2csc(C(CO)Oc3ccc(F)c(C(N)=O)c3F)n2)nc1` (stereo not shown) [Compound 260, 2,6-difluoro-3-(2-hydroxy-1-(4-(5-methoxypyridin-2-yl)thiazol-2-yl)ethoxy)benzamide], for which the MIC was 1 to 16 µg/mL (≈ 2.45 to 39.3 µM).

As for `NC(=O)c1c(F)ccc(OC(COC(=O)NCCN2CCCC2)c2nc(-c3ccc(C(F)(F)F)cc3)c(Br)o2)c1F` (stereo not shown) [Compound 161, 2-(5-bromo-4-(4-(trifluoromethyl)phenyl)oxazol-2-yl)-2-(3-carbamoyl-2,4-difluorophenoxy)ethyl (2-(pyrrolidin-1-yl)ethyl)carbamate], the MIC is 1 to 16 µg/mL (≈ 1.54 to 24.7 µM).

With `CNCC(=O)OCC(Oc1ccc(F)c(C(N)=O)c1F)c1nc(-c2ccc(C(F)(F)F)cc2)c(Br)o1` (stereo not shown) [Compound 62, 2-(5-bromo-4-(4-(trifluoromethyl)phenyl)oxazol-2-yl)-2-(3-carbamoyl-2,4-difluorophenoxy)ethyl 2-(methylamino)acetate], the MIC lay in the range of 0.25 to 1 µg/mL (≈ 0.432 to 1.73 µM).

In the case of `COc1cc(Cl)ccc1-c1coc(C(CO)Oc2ccc(F)c(C(N)=O)c2F)n1` (stereo not shown) [Compound 227, 3-(1-(4-(4-chloro-2-methoxyphenyl)oxazol-2-yl)-2-hydroxyethoxy)-2,6-difluorobenzamide], the MIC was over 16 µg/mL.

Take `Cn1c(CNC(=O)OCC(Oc2ccc(F)c(C(N)=O)c2F)c2nc(-c3ccc(C(F)(F)F)cc3)c(Br)o2)nc2ccccc21` (stereo not shown) [Compound 210, 2-(5-bromo-4-(4-(trifluoromethyl)phenyl)oxazol-2-yl)-2-(3-carbamoyl-2,4-difluorophenoxy)ethyl ((1-methyl-1H-benzo[d]imidazol-2-yl)methyl)carbamate]: the MIC lay within 0.25 to 1 µg/mL (≈ 0.36 to 1.44 µM).

On to `NC(=O)c1c(F)ccc(OC(CO)c2csc(-c3ccc(C(F)(F)F)cc3)n2)c1F` (stereo not shown) [Compound 126, 2,6-difluoro-3-(2-hydroxy-1-(2-(4-(trifluoromethyl)phenyl)thiazol-4-yl)ethoxy)benzamide], for which the MIC was 1 to 16 µg/mL (≈ 2.25 to 36 µM).

For the compound `CCCC(Oc1ccc(F)c(C(N)=O)c1F)c1nc(-c2ccc(Cl)cc2)c(Br)o1` (stereo not shown) [Compound 23], the MIC fell in the range of 1 to 16 µg/mL (≈ 2.06 to 32.9 µM).

As to `NCC(Oc1ccc(F)c(C(N)=O)c1F)c1nc(-c2ccc(C(F)(F)F)cc2)co1` (stereo not shown) [Compound 281, 3-(2-amino-1-(4-(4-(trifluoromethyl)phenyl)oxazol-2-yl)ethoxy)-2,6-difluorobenzamide], the MIC was over 16 µg/mL.

In the case of `NC(=O)c1c(F)ccc(OC(COC(=O)Nc2ccncc2)c2nc(-c3ccc(C(F)(F)F)cc3)c(Br)o2)c1F` (stereo not shown) [Compound 176, 2-(5-bromo-4-(4-(trifluoromethyl)phenyl)oxazol-2-yl)-2-(3-carbamoyl-2,4-difluorophenoxy)ethyl pyridin-4-ylcarbamate], the MIC is 0.25 to 1 µg/mL (≈ 0.399 to 1.59 µM).

`NC(=O)c1c(F)ccc(OC(COC(=O)Cn2cccc2)c2nc(-c3ccc(C(F)(F)F)cc3)c(Br)o2)c1F` (stereo not shown) [Compound 68, 2-(5-bromo-4-(4-(trifluoromethyl)phenyl)oxazol-2-yl)-2-(3-carbamoyl-2,4-difluorophenoxy)ethyl 2-(1H-pyrrol-1-yl)acetate]: the MIC is under 0.25 µg/mL.

For the compound `CC(=O)OCC(OC(C)=O)C(Oc1ccc(F)c(C(N)=O)c1F)c1nc(-c2ccc(C(F)(F)F)cc2)c(Br)o1` (stereo not shown) [Compound 219, 3-(5-bromo-4-(4-(trifluoromethyl)phenyl)oxazol-2-yl)-3-(3-carbamoyl-2,4-difluorophenoxy)propane-1,2-diyl diacetate], the MIC is over 16 µg/mL.

As to `COCCn1cncc1CNC(=O)OCC(Oc1ccc(F)c(C(N)=O)c1F)c1nc(-c2ccc(C(F)(F)F)cc2)c(Br)o1` (stereo not shown) [Compound 207, 2-(5-bromo-4-(4-(trifluoromethyl)phenyl)oxazol-2-yl)-2-(3-carbamoyl-2,4-difluorophenoxy)ethyl ((1-(2-methoxyethyl)-1H-imidazol-5-yl)methyl)carbamate], the MIC fell in the range of 1 to 16 µg/mL (≈ 1.45 to 23.2 µM).

For `CC(Oc1ccc(F)c(C(N)=O)c1F)c1nc(-c2ccc(Cl)cc2)c(Br)o1` (stereo not shown) [Compound 1], the MIC was under 0.25 µg/mL.

Take `NC(=O)c1c(F)ccc(OC(CO)c2nc(-c3ccc(F)cc3F)co2)c1F` (stereo not shown) [Compound 226, 3-(1-(4-(2,4-difluorophenyl)oxazol-2-yl)-2-hydroxyethoxy)-2,6-difluorobenzamide]: the MIC was over 16 µg/mL.

Take `CN(C)C(=O)OCC(Oc1ccc(F)c(C(N)=O)c1F)c1nc(-c2ccc(C(F)(F)F)cc2)c(Br)o1` (stereo not shown) [Compound 107, 2-(5-bromo-4-(4-(trifluoromethyl)phenyl)oxazol-2-yl)-2-(3-carbamoyl-2,4-difluorophenoxy)ethyl dimethylcarbamate]: the MIC is under 0.25 µg/mL.

As to `NC(=O)c1c(F)ccc(OC(C(=O)O)c2nc(-c3ccc(Cl)cc3)co2)c1F` (stereo not shown) [Compound 12, 2-(3-carbamoyl-2,4-difluorophenoxy)-2-(4-(4-chlorophenyl)oxazol-2-yl)acetic acid], the MIC is over 16 µg/mL.

Take `CCc1oc(-c2ccc(OC)cc2)nc1C(CO)Oc1ccc(F)c(C(N)=O)c1F` (stereo not shown) [Compound 306, 3-(1-(5-ethyl-2-(4-methoxyphenyl)oxazol-4-yl)-2-hydroxyethoxy)-2,6-difluorobenzamide]: the MIC fell in the range of 1 to 16 µg/mL (≈ 2.39 to 38.2 µM).

Consider `CC(=O)OCC(Oc1ccc(F)c(C(N)=O)c1F)c1nc(-c2ccc(C(F)(F)F)cc2)sc1Br` (stereo not shown) [Compound 130, 2-(5-bromo-2-(4-(trifluoromethyl)phenyl)thiazol-4-yl)-2-(3-carbamoyl-2,4-difluorophenoxy)ethyl acetate], for which the MIC is over 16 µg/mL.
